In ChEMBL document CHEMBL5727966, “Compositions and methods for treating disorders of circadian and diurnal rhythms using prokineticin 2 agonists and antagonists” (2020) one finds Ki data, which are given here for one compound.

In general, Ki refers to the equilibrium dissociation constant of an inhibitor or competing ligand from its target.

A short description of the assay: Aequorin-Based Luminescent Assay : An aequorin-based luminescent assay for calcium mobilization was used to measure mobilization of intracellular Ca2+ (Bullock et al., Mol Pharmacol 65, 582-588, 2004). Chinese hamster ovary (CHO) cells stably expressing photoprotein aequorin and recombinant PKR1 or PKR2 were tested by this method. Briefly, the cells were charged in Opti-MEM™ (Invitrogen) containing 8 μM of coelenterazine cp at 37° C. for 2 hours. Cells were detached by brief trypsinization and maintained in Hank's Balanced Salt Solution (HBSS) plus 10 mM HEPES (pH7.5) and 0.1% BSA at about 5×10^5 cells/ml. Luminescence measurements were made using a Berthold luminometer.All compounds were diluted in HBSS plus 10 mM HEPES (pH7.5) and 0.1% BSA. To test the agonist activity, 100 μl of cells were injected into the tubes with 20 μl of compounds. For antagonist assays, 80 μl cells were incubated in the tubes with 20 μl different concentrations of antagonists at room temperature for 20 minutes, and then 100 μl of recombinant PK2 were injected. The IC50 obtained from the assays were then converted to Ki values using the formula: IC50/(1+[PK2]/EC50PK2). The assay is classed as cell-based. On the technique in general: Calcium assays in cells follow changes in intracellular calcium, usually with a dye or a luminescent sensor.

On to `CC(C)CN(Cc1cc(Cl)c2c(c1)OCCCO2)C(=O)C1CN(Cc2cccc3nc[nH]c23)CCO1` (stereo unspecified), for which the Ki was found to be 8.4 nM.
